# From PubChem BioAssay (NCI)
#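 Grown in 96-well plates, cells were treated for 48 hours with each compound at five concentrations. Insufficient inhibition: endpoint recorded as highest concentration tested. GI50: concentration for 50% inhibition of growth. TGI is the concentration that stops growth completely.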
# Key:
# Assay in all cases: inhibition of tumour cell growth, NCI panel, 48 h
# [1] = system: MDA-MB-231 breast
# [2] = system: OVCAR-3 ovarian
# [3] = system: HOP-92 NSCLC
# [4] = system: EKVX NSCLC
# [5] = system: COLO 205 colon
# [6] = system: MDA-MB-435
# [7] = system: MCF7 breast
# [8] = system: ACHN renal
# [9] = system: CAKI-1 renal
# [10] = system: NCI-H522 lung
Compound,TGI [1] [µM],TGI [2] [µM],TGI [3] [µM],TGI [4] [µM],TGI [5] [µM],TGI [6] [µM],TGI [7] [µM],TGI [8] [µM],TGI [9] [µM],TGI [10] [µM],GI50 [10] [nM],GI50 [2] [nM],GI50 [3] [nM],GI50 [4] [nM],GI50 [6] [nM],GI50 [8] [nM],GI50 [9] [nM]
CC(C)=CCC[C@@H](C)C1=C(O)C(Nc2ccccc2F)=C(C)C(=O)C1=O,> 100,> 30.4,> 65.3,> 100,> 68.9,> 100,> 90,49.5,48.2,,,,,,,,
[N-]=[N+]=NC(c1cn(C2CC(O)C(CO)O2)c(=O)[nH]c1=O)C(I)I (configuration not stated),,> 100,> 100,> 100,> 100,,,> 100,> 100,,,,,,,,
Nc1ccc(S(=O)(=O)c2ccc(N=[N+]([O-])c3ccc(S(=O)(=O)c4ccc(N)cc4)cc3)cc2)cc1,> 78.1,> 56,38.4,> 100,> 100,> 100,> 100,> 100,> 100,> 74,,,,,,,
CCC(=O)n1c(=O)n(-c2ccc([N+](=O)[O-])cc2)c(=O)n1C(=O)CC,> 100,> 100,,> 100,> 100,> 100,> 100,> 100,> 100,> 100,,,,,,,
CC(=O)O[C@@H]1CC2[C@@H](CCC3Cc4nc5c(nc4C[C@@]32C)CC2CC[C@@H]3C(CC[C@@]4(C)C3CC[C@@H]4C(C)CCCC(C)C)[C@@]2(C)C5)C2C[C@@H]3OC4(CCC(C)CO4)C(C)[C@@H]3[C@]21C (some centres not stated),> 100,> 100,70,> 100,> 100,> 100,> 100,> 100,,> 100,,,,,,,
CCOc1ccc(-n2c(=O)n3c(Nc4ccc(Cl)cc4)nc4c(c(=O)n(C)c(=O)n4C)n3c2=O)cc1,35.1,52.5,48.2,89.6,46.4,39.7,> 100,> 100,> 100,32.8,,,,,,,
N/C(=N\N=C/c1cc(Cl)cc(Cl)c1O)NO,,53.6,46.8,37.6,> 43.7,,10.3,,10.1,,,,,,,,
O=C(Cc1ccccc1)NN1C(=O)C(Cl)C1c1ccccc1 (configuration not stated),,> 100,,> 100,> 100,,,> 100,> 100,3.93,,,,,,,
CC[S+](C)c1ccc(-c2c3nc(c(-c4ccc([S+](C)CC)cc4)c4ccc([nH]4)c(-c4ccc([S+](C)CC)cc4)c4nc(c(-c5ccc([S+](C)CC)cc5)c5ccc2[nH]5)C=C4)C=C3)cc1 (configuration not stated),,> 100,> 100,94.8,> 100,,,> 100,> 100,> 100,,,,,,,
CC(=O)C1C(=O)C(=O)N(c2ccc([N+](=O)[O-])cc2Cl)C1=O (configuration not stated),> 100,> 100,> 100,> 100,> 100,> 100,> 100,> 100,> 100,> 100,,,,,,,
OC(C1CCCC1=N/N=C1/CCCC1C(O)(C(F)(F)Cl)C(F)(F)Cl)(C(F)(F)Cl)C(F)(F)Cl (configuration not stated),> 10,> 10,> 10,> 10,> 10,> 10,> 10,> 10,> 10,> 10,,,,,,,
COC(=O)C[C@](O)(CCC(C)(C)O)C(=O)O[C@@H]1C(OC)=C[C@]23CCCN2CCc2cc4c(cc2[C@H]13)OCO4,,0.459,0.653,0.43,0.255,,0.113,,1.64,0.0597,,,,,,,
COC(=O)Nc1nc2ccc(NS(=O)(=O)c3ccc(F)cc3)cc2[nH]1,> 100,16.2,> 100,> 100,37.8,11.2,> 100,> 100,> 100,7.68,,,,,,,
CC1(C)OCC(C2OC(=O)C(OCc3ccccc3)=C2OCc2ccccc2)O1 (configuration not stated),> 100,> 100,> 100,> 100,50.6,79.4,> 100,> 100,> 100,78.4,,,,,,,
CC(=N\N=C\c1ccccn1)/C(C)=N/N=C/c1ccccn1,> 100,> 100,> 100,> 100,> 100,> 100,> 100,> 100,> 100,> 100,,,,,,,
O=C(/C=C\c1ccc(OCCCCCC[P+](c2ccccc2)(c2ccccc2)c2ccccc2)cc1)c1ccc2c(c1)OCCO2,,1.61,2.79,6.72,,2.21,,3.29,3.88,4.42,885,423,487,1500,985,1790,1840
C=CC[C@@]1(C#N)C[C@H](C[C@]2(C#N)C[C@H](CCl)OC(C)(C)O2)OC(C)(C)O1,,> 100,> 100,> 100,> 100,,,> 100,> 100,> 100,,,,,,,
CCC(C)N1CN(c2ccccc2)C2(CCN(CCCC(=O)c3ccc(F)cc3)CC2)C1=O (configuration not stated),23.1,24.8,,36.4,0.348,27.5,11.5,9.73,26.8,20.6,,,,,,,
CN(C)Cc1cc(C(=O)/C=C/c2c(F)cccc2Cl)cc(CN(C)C)c1O,27.5,24.6,20.3,28.7,24.8,38.2,20.2,15.4,25.3,,,,,,,,
O=C1CSC(c2c(O)ccc3ccccc23)N1n1c(=S)[nH]nc(/C=C/c2c(O)ccc3ccccc23)c1=O (configuration not stated),20.7,17.7,65.3,51.3,,14.9,18.9,11.2,11.4,21,,,,,,,
